The source of these data is ChEMBL document CHEMBL4483862, “Open-source discovery of chemical leads for next-generation chemoprotective antimalarials” (2018).

In this assay the test system is Plasmodium berghei. Description: Luciferase/luciferin-expressing antifolate-resistant parasites were used to infect a culture of HepG2 cells that were pre-incubated with compounds. Infected hepatocytes emit light due to the luciferase reaction. Assay results are presented as the percent inhibition of light emission compared to control. […]. The class given is functional. To be noted: sporozoite; for IC90: read-out: LUCIFERASE INFECTION ASSAY - IC90.

For orientation: IC50 means the concentration that inhibits the measured activity by half. Broadly, the IC90 is the concentration at which the effect reaches the 90% level.

In the case of `O=C(Nc1cc(C(F)(F)F)cc(C(F)(F)F)c1)Nc1cnn(-c2ccc([N+](=O)[O-])cc2)c1C(F)(F)F`, the IC90 is 3.21 µM. Besides, the IC50 (PBLUC_HILL_SLOPE 8.84, PBLUC_R_SQUARED 0.29, read-out: LUCIFERASE INFECTION ASSAY - IC50) amounted to 2.5 µM.
As to `CCCc1cc(NCc2ccccn2)n2nc(C)c(-c3ccccc3)c2n1`, the IC90 came out at 4.47 µM. For the same compound, the IC50 (PBLUC_HILL_SLOPE 8.47, PBLUC_R_SQUARED 0.549, read-out: LUCIFERASE INFECTION ASSAY - IC50) came out at 3.45 µM.
Consider `CCN(CC)CCNC(=O)c1ccc(NC(=O)c2cccc(S(=O)(=O)N3CCc4ccccc43)c2)cc1`, for which the 90% effect concentration (IC90) is more than 10 µM. Besides, the half-maximal inhibitory concentration (IC50) (PBLUC_HILL_SLOPE 8.86, PBLUC_R_SQUARED 0.0114, read-out: LUCIFERASE INFECTION ASSAY - IC50) is more than 10 µM.
For the compound `CCCNc1cc(-c2ccccc2)nc(-n2nc(C)cc2C)n1`, the IC90 was 4.24 µM. The half-maximal inhibitory concentration (IC50) (PBLUC_HILL_SLOPE 8.43, PBLUC_R_SQUARED 0.511, read-out: LUCIFERASE INFECTION ASSAY - IC50) was 3.27 µM.
In the case of `O=C(CCn1ccc2ccccc21)NC(Cc1ncc[nH]1)c1ccccc1` (configuration not stated), the IC90 is 4.79 µM. Also, under “PBLUC_HILL_SLOPE 8.72, PBLUC_R_SQUARED 0.12, read-out: LUCIFERASE INFECTION ASSAY - IC50”, the IC50 is 3.72 µM.
Take `CNC(=O)c1cccc(-c2ccc3ncc(-c4cccc(OC(F)(F)F)c4)n3n2)c1`: the 90% effect concentration (IC90) stood at 4.88 µM. For the same compound, the 50% inhibitory concentration (IC50) (PBLUC_HILL_SLOPE 8.51, PBLUC_R_SQUARED 0.256, read-out: LUCIFERASE INFECTION ASSAY - IC50) was found to be 3.77 µM.
Regarding `COc1cc(Nc2nccc3c2cc(-c2ccc(C(=O)N(C)C)cc2)n3C)cc(C(F)(F)F)c1`, the IC90 was determined as 4.64 µM. Also, the IC50 (PBLUC_HILL_SLOPE 8.8, PBLUC_R_SQUARED 0.371, read-out: LUCIFERASE INFECTION ASSAY - IC50) came out at 3.62 µM.
Take `O=C(Cn1ncc(Cl)c(Cl)c1=O)N(Cc1cccs1)c1ccc2c(c1)OCCO2`: the IC90 is more than 10 µM. Also, under “PBLUC_HILL_SLOPE 8.55, 0.379, PBLUC_R_SQUARED 0.113, 0.341, read-out: LUCIFERASE INFECTION ASSAY - IC50”, the IC50 is 6.34 µM.
`Cc1nc2ccccn2c1-c1nc(CCC2CCCCC2)c(C(=O)c2c(C)[nH]c3ccccc23)s1`: the IC90 was more than 10 µM. For the same compound, the concentration for half-maximal inhibition (IC50) (PBLUC_HILL_SLOPE 8.8, PBLUC_R_SQUARED 0.142, read-out: LUCIFERASE INFECTION ASSAY - IC50) is 8.77 µM.
For the compound `CCOC(=O)N1CCC(N/C=C(\C#N)S(=O)(=O)c2ccc(Cl)cc2)CC1`, the 90% effect concentration (IC90) was found to be 3.29 µM. The half-inhibitory concentration (IC50) (PBLUC_HILL_SLOPE 8.69, PBLUC_R_SQUARED 0.709, read-out: LUCIFERASE INFECTION ASSAY - IC50) came out at 2.55 µM.
As to `CC(C)Cc1ccc(CN2CCc3c(c(C(=O)N(C)Cc4cscn4)nn3CC3CC3)C2)cc1`, the concentration for an effect of 90% (IC90) is more than 6.91 µM. Besides, the 50% inhibitory concentration (IC50) (PBLUC_HILL_SLOPE 8.64, PBLUC_R_SQUARED 0.119, read-out: LUCIFERASE INFECTION ASSAY - IC50) amounted to 5.84 µM.
For the compound `Cc1nc(NC(=O)c2ccc(C(C)(C)C)cc2)ccc1Br`, the IC90 was more than 9.5 µM. Where the note is “PBLUC_HILL_SLOPE 8.59, PBLUC_R_SQUARED 0.6, read-out: LUCIFERASE INFECTION ASSAY - IC50”, the half-inhibitory concentration (IC50) is 7.43 µM.
As to `Cc1nccc(-c2ccc(NC(=O)c3cc(S(=O)(=O)NCc4ccccc4)ccc3C)cc2)n1`, the 90% effect concentration (IC90) is more than 10 µM. The IC50 (PBLUC_HILL_SLOPE 8.64, PBLUC_R_SQUARED 0.681, read-out: LUCIFERASE INFECTION ASSAY - IC50) was 8.33 µM.
As to `CCCCN(C)CC(O)Cn1c2ccc(Br)cc2c2cc(Br)ccc21` (configuration not stated), the concentration for an effect of 90% (IC90) was more than 7.05 µM. Further, the IC50 (PBLUC_HILL_SLOPE 8.48, PBLUC_R_SQUARED 0.699, read-out: LUCIFERASE INFECTION ASSAY - IC50) stood at 5.83 µM.
For `CCC(CC)c1nn(CC(=O)c2cc(C)n(CCOC)c2C)c(=N)s1`, the IC90 was more than 10 µM. The half-maximal inhibitory concentration (IC50) (PBLUC_HILL_SLOPE 8.4, PBLUC_R_SQUARED 0.0548, read-out: LUCIFERASE INFECTION ASSAY - IC50) was 9.17 µM.
In the case of `CCCCC(CC)C(=O)Nc1nc2ccccn2c1C(=O)NC1CCCCC1` (configuration not stated), the IC90 is more than 8.58 µM. Further, the IC50 (PBLUC_HILL_SLOPE 8.64, PBLUC_R_SQUARED 0.333, read-out: LUCIFERASE INFECTION ASSAY - IC50) was found to be 8.01 µM.
Regarding `Oc1ccc(/C=N/n2c(-c3ccco3)cs/c2=N\c2ccc(F)cc2F)c(O)c1`, the IC90 was more than 10 µM. Moreover, the IC50 (PBLUC_HILL_SLOPE 8.45, PBLUC_R_SQUARED 0.234, read-out: LUCIFERASE INFECTION ASSAY - IC50) was 8.99 µM.
With `Cc1nnc(SCc2cc(=O)n3nc(C)c(-c4ccc(F)cc4)c3[nH]2)s1`, the concentration for an effect of 90% (IC90) is more than 8.52 µM. The IC50 (PBLUC_HILL_SLOPE 8.42, PBLUC_R_SQUARED 0.168, read-out: LUCIFERASE INFECTION ASSAY - IC50) was 7.52 µM.
With `COC(=O)c1cc(CSc2nc3ccccc3c(=O)n2-c2ccc(OC)cc2)oc1C`, the IC90 was more than 10 µM. For the same compound, where the note is “PBLUC_HILL_SLOPE 8.32, PBLUC_R_SQUARED 0.0862, read-out: LUCIFERASE INFECTION ASSAY - IC50”, the half-inhibitory concentration (IC50) is more than 10 µM.
In the case of `CC(OC(=O)c1ccccc1Nc1ccccc1)C(=O)NC1CC1` (configuration not stated), the concentration for an effect of 90% (IC90) was more than 10 µM. For the same compound, the IC50 (PBLUC_HILL_SLOPE 8.51, PBLUC_R_SQUARED 0.0555, read-out: LUCIFERASE INFECTION ASSAY - IC50) was determined as 8.65 µM.
`O=C(N/N=C/c1ccc(N2CCCCC2)s1)c1ccccc1O`: the concentration for an effect of 90% (IC90) stood at 5.71 µM. Also, for the setting “PBLUC_HILL_SLOPE 8.76, 2.86, PBLUC_R_SQUARED 0.104, 0.555, read-out: LUCIFERASE INFECTION ASSAY - IC50”, the half-maximal inhibitory concentration (IC50) came to 3.37 µM.
Regarding `CCCn1c(NC(=O)c2oc3ccccc3c2COCC)nc2ccccc21`, the IC90 is more than 10 µM. The IC50 (PBLUC_HILL_SLOPE 8.76, PBLUC_R_SQUARED 0.513, read-out: LUCIFERASE INFECTION ASSAY - IC50) amounted to 8.84 µM.
For `COc1ccc(-c2cnc3cnc(-c4ccc(C(=O)NCCO)cc4)cn23)cc1`, the 90% effect concentration (IC90) is 4.08 µM. For the same compound, under “PBLUC_HILL_SLOPE 8.42, PBLUC_R_SQUARED 0.632, read-out: LUCIFERASE INFECTION ASSAY - IC50”, the concentration for half-maximal inhibition (IC50) amounted to 3.15 µM.
As to `CC(C)Oc1ccc(Nc2cc3c(cn2)cc(-c2cccc(C(F)(F)F)c2)n3C)cc1`, the IC90 was determined as 5.18 µM. For the same compound, the IC50 (PBLUC_HILL_SLOPE 8.74, PBLUC_R_SQUARED 0.3, read-out: LUCIFERASE INFECTION ASSAY - IC50) was 4.03 µM.
Take `O=C(Nc1ccc(Oc2ccc(F)cc2)nc1)c1cccc(-n2cnnn2)c1`: the IC90 was more than 10 µM. Also, under “PBLUC_HILL_SLOPE 8.75, PBLUC_R_SQUARED 0.449, read-out: LUCIFERASE INFECTION ASSAY - IC50”, the concentration for half-maximal inhibition (IC50) was 8.72 µM.
With `CCCCNC(=O)c1c(NC(=O)c2cccc(Cl)c2Cl)nc2ccccn12`, the IC90 was more than 8.14 µM. For the same compound, the IC50 (PBLUC_HILL_SLOPE 8.82, PBLUC_R_SQUARED 0.193, read-out: LUCIFERASE INFECTION ASSAY - IC50) came out at 6.71 µM.
